Laboratory results: patent US20120309683A1, “USE OF […] ADENYLATE CYCLASE-ACTIVATING POLYPEPTIDE (PACAP) AND PACAP ANALOGS AS ADJUNCTIVE TREATMENTS WITH INHIBITORS OF CALCINEURIN OR INHIBITORS OF THE […] TARGET OF RAPAMYCIN (mTOR) COMPLEXES” (The Administrators of the Tulane Educational Fund, priority 2010, published 2012)

Experiments:
[1] = tested on: HK-2 human kidney cells (human renal proximal tubule epithelial cells); experiment: Tacrolimus-induced loss of viability of HK-2 cells, lactate dehydrogenase in intact cells; format: cell-based; details: tacrolimus alone, HK-2 cells
Protocol: The HK-2 human kidney cells were cultured in Keratinocyte-Serum Free Medium supplemented with recombinant epidermal growth factor and bovine pituitary extract. […] Each value represents the mean plus/minus the standard error of five determinations. **p<0.01 and *p<0.05 compared to the cells treated only with tacrolimus.

[2] = tested on: IL-2 synthesis; details: cited from earlier work

Structure (SMILES): C=CC[C@@H]1/C=C(\C)C[C@H](C)C[C@H](OC)[C@H]2O[C@@](O)(C(=O)C(=O)N3CCCC[C@H]3C(=O)O[C@H](/C(C)=C/[C@@H]3CC[C@@H](O)[C@H](OC)C3)[C@H](C)[C@@H](O)CC1=O)[C@H](C)C[C@@H]2OC [tacrolimus, reference compound]
- number of viable cells [1]: large significant decrease in the number of viable cells
- potency as an inhibitor of IL-2 synthesis relative to cyclosporine A [2]: about 100 -fold
